In paper PMC8270270, “Rosin Derivatives as a Platform for the Antiviral Drug Design” (Molecules, 2021):
Values after ≈ are worked out from the molar mass of the structure shown.

Legend:
A549 cell culture = experiment: Cytotoxicity, colorimetric MTT assay; format: cell-based, human; conditions: for Cytotoxicity (in words): A549, MTT assay; for IC50: Homo sapiens, A549, 24 h, read-out: Determined IC50
Method: The cytotoxicity of compounds (I–V) was assessed on A549 cell culture using a colorimetric MTT assay. A549 cells were incubated for 24 h at 37 °C, 5% CO2 with solutions of the studied compounds at various concentrations. Next, the cell monolayer was washed, and MTT solution was added in a volume of 0.1 mL at a concentration of […]. After 1 h of MTT contact with the cells, the wells were washed, and the formed formazan crystals were dissolved in 0.1 mL of DMSO. The results were recorded at 560 nm on a CLARIOstar Plus plate photometer (BMG LABTECH, Ortenberg, Germany). The IC50 was calculated using GraphPad Prism 6.0.

Candida tropicalis = experiment: Disco-diffuse method, fungicidal activity; format: cell-based; conditions: for The Zone of Growth Inhibition / zone of inhibition at 1000 µg/mL / zone of inhibition at 5000 µg/mL / zone of inhibition at 10000 µg/mL / zone of inhibition at 25000 µg/mL / zone of inhibition at 50000 µg/mL: 48 h at 32 °C; for zone of inhibition at 1000 µg/mL / zone of inhibition at 5000 µg/mL / zone of inhibition at 10000 µg/mL / zone of inhibition at 25000 µg/mL / zone of inhibition at 50000 µg/mL: Candida tropicalis, read-out: The Zone of Growth Inhibition
Method: (§1) The determination of compounds (I, IV, VI–XI) effect concerning microorganisms was carried out using test strains of Escherichia coli, Bacillus subtilis, and Candida tropicalis. They are not only natural inhabitants of natural biocenoses but also a part of human microbiocenosis. Used microorganisms of bacteria were selected as representatives of the Gram-positive and Gram-negative human microbiota. The antibacterial activity of compounds (I, IV, VI–XI) was studied by the disco-diffuse method. The strain culture was transferred sterile from the mown agar into test tubes with 5 mL of nutrient medium to obtain a “night culture” 12–15 h before the experiment. Beef-extract agar (BEA) was used as a nutrient medium for the development of bacterial cells, and Sabouraud’s medium was used for yeast. Bacterial cultures were incubated in a thermostat at 37 °C, and yeast cultures at 32 °C. The melted BEA was poured sterile into Petri dishes (diameter 90 mm) and evenly distributed over the bottom of the dish, covered with a lid, and left on the table until it solidified completely. Next, the dishes with BEA were inoculated with a “lawn” by introducing a strain culture (suspension titer −1–2 × 10^8 CFU/mL) in an amount of 500 µL and evenly distributing it with a sterile spatula. The dishes were left for 60–90 min to dry the culture. Compounds (I, IV, VI–XI) were previously dissolved, and the sequential dilutions were applied to disks. Dimethyl sulfoxide (DMSO) was used as a solvent for the DAA. Water was used as a solvent for their potassium salts. […] This disk was impregnated with a solution of the test compound amounting to 100 μL and incubated in the dark for 24 h at 37 °C (Escherichia coli and Bacillus subtilis) and 48 h at 32 °C (Candida tropicalis). The solution diffuses, forming a concentration gradient of the test compound around the disc. After the incubation period, the inhibition zone or stimulation of microbial growth around the disk was measured in the experimental and control samples. A conclusion was made about the degree (bactericidal) toxicity of compounds. Solvent-treated disks (DMSO) were used as controls. The experiments were performed three times.

[1] = tested on: A/California/07/09 ((A)H1N1pdm09) viral strain; format: cell-based, influenza virus
Escherichia coli = experiment: Disco-diffuse method, antibacterial activity; format: cell-based; conditions: for MIC: from disc diffusion, read-out: minimum inhibitory concentration
Method: as §1

Bacillus subtilis = experiment: Disco-diffuse method, antibacterial activity; format: cell-based; conditions: for MIC: from disc diffusion, read-out: minimum inhibitory concentration
Method: as §1

[2] = at the working concentrations used to assess antiviral activity
[3] = compound concentration 10 mg/mL
[4] = compound concentration 25 mg/mL
[5] = compound concentration 50 mg/mL
[6] = compound concentration 1 mg/mL, 24 h at 37 °C
[7] = compound concentration 5 mg/mL, 24 h at 37 °C
[8] = compound concentration 10 mg/mL, 24 h at 37 °C
[9] = compound concentration 25 mg/mL, 24 h at 37 °C
[10] = compound concentration 50 mg/mL, 24 h at 37 °C
[11] = A549, therapeutic scheme, 24 h after stimulation, working concentration
[12] = Escherichia coli, compound concentration 1 mg/mL, 24 h at 37 °C, read-out: The Zone of Growth Inhibition
[13] = Escherichia coli, compound concentration 5 mg/mL, 24 h at 37 °C, read-out: The Zone of Growth Inhibition
[14] = Escherichia coli, compound concentration 10 mg/mL, 24 h at 37 °C, read-out: The Zone of Growth Inhibition
[15] = Escherichia coli, compound concentration 25 mg/mL, 24 h at 37 °C, read-out: The Zone of Growth Inhibition
[16] = Bacillus subtilis, compound concentration 1 mg/mL, 24 h at 37 °C, read-out: The Zone of Growth Inhibition
[17] = Bacillus subtilis, compound concentration 5 mg/mL, 24 h at 37 °C, read-out: The Zone of Growth Inhibition
[18] = Bacillus subtilis, compound concentration 10 mg/mL, 24 h at 37 °C, read-out: The Zone of Growth Inhibition
[19] = Bacillus subtilis, compound concentration 25 mg/mL, 24 h at 37 °C, read-out: The Zone of Growth Inhibition

In the case of `CC(C)c1cc2c(cc1S(=O)(=O)[O-])C1(C)CCCC(C)(C(=O)[O-])C1CC2.[K+].[K+]` (stereo not drawn) [IV, Potassium 12-sulfodehydroabietate], the “Cytotoxicity (in words)” value (A549 cell culture) is reported as “weak toxicity”, the IC50 (A549 cell culture) is reported as over 431 µg/mL and the “Cell viability (in words)” value (A549 cell culture; [2]) is reported as “did not cause a significant decrease in cell viability”. The “Fungicidal activity (in words)” value (Candida tropicalis; 1-50 mg/mL) was “did not show either antibacterial activity or fungicidal activity”, the “The Zone of Growth Inhibition” value (Candida tropicalis; compound concentration 1 mg/mL) was 0 mm and the “The Zone of Growth Inhibition” value (Candida tropicalis; compound concentration 5 mg/mL) was 0 mm. For the same compound, the “The Zone of Growth Inhibition” value (Candida tropicalis; [3]) was 0 mm, the “The Zone of Growth Inhibition” value (Candida tropicalis; [4]) was 0 mm and the “The Zone of Growth Inhibition” value (Candida tropicalis; [5]) was 0 mm. For the same compound, the Dose-dependent antiviral effect [1] was “did not significantly reduce the viral load”, the “Antiviral activity (in words)” value ([1]; A549, in vitro, working concentration) was “did not show antiviral activity” and the “Antibacterial activity (in words)” value (Escherichia coli; 1-50 mg/mL) was “did not show either antibacterial activity or fungicidal activity”. The “The Zone of Growth Inhibition” value (Escherichia coli; [6]) was 0 mm, the “The Zone of Growth Inhibition” value (Escherichia coli; [7]) was 0 mm and the “The Zone of Growth Inhibition” value (Escherichia coli; [8]) was 0 mm. For the same compound, the “The Zone of Growth Inhibition” value (Escherichia coli; [9]) was 0 mm, the “The Zone of Growth Inhibition” value (Escherichia coli; [10]) was 0 mm and the “Antibacterial activity (in words)” value (Bacillus subtilis; 1-50 mg/mL) was “did not show either antibacterial activity or fungicidal activity”. The “The Zone of Growth Inhibition” value (Bacillus subtilis; [6]) was 0 mm, the “The Zone of Growth Inhibition” value (Bacillus subtilis; [7]) was 0 mm and the “The Zone of Growth Inhibition” value (Bacillus subtilis; [8]) was 0 mm. The “The Zone of Growth Inhibition” value (Bacillus subtilis; [9]) was 0 mm and the “The Zone of Growth Inhibition” value (Bacillus subtilis; [10]) was 0 mm.

In the case of `CC(C)C1=CC2=CCC3C(C)(C(=O)[O-])CCCC3(C)C2CC1.[K+]` (stereo not drawn) [II, Potassium abietate], the “Cytotoxicity (in words)” value (A549 cell culture) is reported as “highest cytotoxicity”, the IC50 (A549 cell culture) is reported as 240 µg/mL and the “Decrease in viable cells” value (A549 cell culture; [2]) is reported as 50%. The Dose-dependent antiviral effect [1] was “led to a decrease in the antiviral effect”, the “Content of viral protein NP inside the cells (ELISA)” value [1, 11] was “decrease in the content of the viral protein NP inside the cells” and the “Viral load in supernatants obtained from cells (NP ELISA), vs control” value [1, 11] was “slight decrease in the viral load”.

Work on `CC(C)C1=CC2=CC[C@@H]3[C@](C)(CCC[C@@]3(C)C(=O)O)[C@H]2CC1` [IX, Abietic acid] yielded a zone of inhibition at 1000 µg/mL (Candida tropicalis; compound concentration 1 mg/mL) of 0 mm, a zone of inhibition at 5000 µg/mL (Candida tropicalis; compound concentration 5 mg/mL) of 0 mm and a zone of inhibition at 10000 µg/mL (Candida tropicalis; [3]) of 0 mm. The zone of inhibition at 25000 µg/mL (Candida tropicalis; [4]) was 1 ± 0.11 mm, the zone of inhibition at 50000 µg/mL (Candida tropicalis; [5]) was 1 ± 0.15 mm and the zone of inhibition at 1000 µg/mL (Escherichia coli; [12]) was 0 mm. For the same compound, the zone of inhibition at 5000 µg/mL (Escherichia coli; [13]) was 1 ± 0.1 mm, the zone of inhibition at 10000 µg/mL (Escherichia coli; [14]) was 1 ± 0.1 mm and the zone of inhibition at 25000 µg/mL (Escherichia coli; [15]) was 2 ± 0.24 mm. It also gave a zone of inhibition at 50000 µg/mL (Escherichia coli; Escherichia coli, compound concentration 50 mg/mL, 24 h at 37 °C, read-out: The Zone of Growth Inhibition) of 3 ± 0.14 mm, an MIC (Escherichia coli; Escherichia coli, 1-50 mg/mL) of 5000 µg/mL (≈ 16500 µM) and a zone of inhibition at 1000 µg/mL (Bacillus subtilis; [16]) of 1 ± 0.15 mm. It also gave a zone of inhibition at 5000 µg/mL (Bacillus subtilis; [17]) of 2.1 ± 0.03 mm, a zone of inhibition at 10000 µg/mL (Bacillus subtilis; [18]) of 2 ± 0.05 mm and a zone of inhibition at 25000 µg/mL (Bacillus subtilis; [19]) of 4 ± 0.1 mm. It also gave a zone of inhibition at 50000 µg/mL (Bacillus subtilis; Bacillus subtilis, compound concentration 50 mg/mL, 24 h at 37 °C, read-out: The Zone of Growth Inhibition) of 5 ± 1.04 mm and an MIC (Bacillus subtilis; Bacillus subtilis, 1-50 mg/mL) of 1000 µg/mL (≈ 3310 µM).

`CC(C)c1cc2c(cc1Br)C1(C)CCCC(C)(C(=O)O)C1CC2` (stereo not drawn) [X, 12-bromodehydroabietic acid] was tested, and the zone of inhibition at 1000 µg/mL (Candida tropicalis; compound concentration 1 mg/mL) was 0 mm, the zone of inhibition at 5000 µg/mL (Candida tropicalis; compound concentration 5 mg/mL) was 0 mm and the zone of inhibition at 10000 µg/mL (Candida tropicalis; [3]) was 0 mm. The zone of inhibition at 25000 µg/mL (Candida tropicalis; [4]) was 1.1 ± 0.24 mm, the zone of inhibition at 50000 µg/mL (Candida tropicalis; [5]) was 1.9 ± 0.16 mm and the zone of inhibition at 1000 µg/mL (Escherichia coli; [12]) was 0.9 ± 0.1 mm. For the same compound, the zone of inhibition at 5000 µg/mL (Escherichia coli; [13]) was 2 ± 0.07 mm, the zone of inhibition at 10000 µg/mL (Escherichia coli; [14]) was 7.6 ± 0.03 mm and the zone of inhibition at 25000 µg/mL (Escherichia coli; [15]) was 4.6 ± 0.05 mm. For the same compound, the MIC (Escherichia coli; Escherichia coli, 1-50 mg/mL) was 1000 µg/mL (≈ 2640 µM), the “The Zone of Growth Inhibition” value (Escherichia coli; [10]) was “Does not diff” and the zone of inhibition at 1000 µg/mL (Bacillus subtilis; [16]) was 3.1 ± 0.25 mm. It also gave a zone of inhibition at 5000 µg/mL (Bacillus subtilis; [17]) of 9.5 ± 0.05 mm, a zone of inhibition at 10000 µg/mL (Bacillus subtilis; [18]) of 9.7 ± 0.04 mm and a zone of inhibition at 25000 µg/mL (Bacillus subtilis; [19]) of 10.5 ± 0.03 mm. The MIC (Bacillus subtilis; Bacillus subtilis, 1-50 mg/mL) was 1000 µg/mL (≈ 2640 µM) and the “The Zone of Growth Inhibition” value (Bacillus subtilis; [10]) was “Does not diff”.
